Columns and labels:
iron = experiment: Pharmacodynamics: iron in 24-hour urine; assay type: in vivo, human
Protocol: Urine was collected for 24 hours following administration of Compound 1. […] In other studies, a more sensitive urinary iron assay was employed (LLOQ 10 μg/dL).

[1] = tested on: patients with transfusional iron overload; experiment: Example 11: efficacy study, R2 liver iron concentration per FerriScan MRI (text: mg/g liver dw); assay type: in vivo, human
Protocol: (§1) The goal of this experiment was to: 1. evaluate the safety and tolerability based on clinical assessments of two doses (16 and 32 mg/kg/d) of Compound 1 when administered daily for 24 weeks to patients with transfusional iron overload; 2. identify a differential response between dose groups in liver iron concentration determined by magnetic resonance imaging (MRI) after 24 weeks of dosing; and 3. assess the safety and efficacy activity of Compound 1 when administered daily for up to 96 weeks.
(§2) This experiment is an open-label, randomized study of two dose levels (16 and 32 mg/kg/d) of Compound 1 administered once daily for 24 weeks to eligible patients with transfusional iron overload requiring chelation therapy, with a dosing extension of 72 additional weeks.
(§3) Patients were assigned to one of two strate: “high” or “low” transfusion burden based on the average iron intake of the six transfusion sessions. Patients within each transfusion burden groups were randomized to one of two Compound 1 treatment arms: 16 mg/kg/d (16 mpk) or 32 mg/kg/d (32 mpk). The stratification followed by randomization to treatment arms helps to ensure an equal distribution of patients with “high” and “low” transfusion burdens to the high or low dose of Compound 1. Each treatment arm received one dose of Compound 1 daily for 24 weeks.
(§4) At the conclusion of the 24 week dosing period, patients who qualify and consent to continue treatment continued for an additional 72 weeks of Compound 1 dosing.
(§5) The inclusion of 25 patients in each treatment group provided a statistical power of 0.80 to detect, within 6 months, an LIC difference (normalized for initial LIC) of 3 mg/g dry weight between the two dose groups as determined by MRI. Baseline characteristics between dose groups were compared using Fisher extract test or Wilcoxon rank sum test as appropriate. The change in baseline to week 12, 24, and 72 values for all pharmacodynamics parameters were analyzed by an ANCOVA model with main effect for treatment group with baselines value for the corresponding parameters and transfusion burdon (iron input) during the study and baseline liver iron concentration as covariates comparing the two active treatment groups. T2* values were natural log transformed and summarized as the geometric mean (the antilog of the mean of the log data) plus or minus the co-efficient of variation (CV) defined as square root of eMSE where MSE is defined as the mean square error and subject to ANCOVA setting the p value as the threshold for statistical significance at 0.05 (confidence level of 95%).
Conducted was a multicenter, randomized, open-label study of adult subjects with documented transfusional iron overload in need of chelation therapy. Transfusional iron overload was defined as LIC by R2 (FerriScan®) magnetic resonance imaging (MRI)≧3.5 mg/g liver dw or serum ferritin>500 ng/mL. Subjects received investigational product for 24 weeks with an extension of 72 weeks for the evaluation of long-term safety and efficacy. The 24-week and 48-week pharmacodynamics results are described in this section. A total of 51 subjects enrolled and 49 completed the initial 24-week treatment period.

[2] = tested on: patients with transfusional iron overload; experiment: Example 11: efficacy study, serum ferritin; assay type: in vivo, human
Protocol: as §1, §2, §3, §4, §5

[3] = Relative humidity stress (deliquescence, hygroscopicity); assay type: physicochemical
[4] = randomized to 16 mg/kg/d, dose adjustments after week 24
[5] = randomized to 32 mg/kg/d, dose adjustments after week 24

## COCCOCCOCCOc1cccc(C2=N[C@@](C)(C(=O)O)CS2)c1O [Compound 1, (S)-4,5-Dihydro-2-[2-hydroxy-3-(3,6,9-trioxadecyloxy)phenyl]-4-methyl-4-thiazolecarboxylate magnesium hydroxide]
iron; all doses, LLOQ of iron approximately 195 μg/dL
  iron in 24 hour urine: no detectable iron
iron; other studies, LLOQ 10 μg/dL, no dose-dependent trends
  iron in urine, more sensitive assay: Iron was detected in the urine of all subjects
[1]; 16 mg/kg/d
  R2 LIC Change from Baseline to Week 12, Mean (SD): 2.68 (4.050)
  R2 LIC Change from Baseline to Week 12, Median: 0.90
  R2 LIC Change from Baseline to Week 24, Mean (SD): 3.08 (5.552)
  R2 LIC Change from Baseline to Week 24, Median: 1.10
  R2 LIC Week 12, Mean (SD): 15.90 (9.446)
  R2 LIC Week 12, Median: 11.70
  R2 LIC Week 24, Mean (SD): 16.31 (10.570)
  R2 LIC Week 24, Median: 11.50
[1]; 32 mg/kg/d
  R2 LIC Change from Baseline to Week 12, Mean (SD): −0.22 (2.827)
  R2 LIC Change from Baseline to Week 12, Median: 0.10
  R2 LIC Change from Baseline to Week 24, Mean (SD): −0.27 (4.950)
  R2 LIC Change from Baseline to Week 24, Median: 0.20
  R2 LIC Week 12, Mean (SD): 13.59 (8.684)
  R2 LIC Week 12, Median: 10.70
  R2 LIC Week 24, Mean (SD): 13.25 (8.510)
  R2 LIC Week 24, Median: 9.30
[1]; 16 mpk
  LIC from baseline to Weeks 12 and 24: statistically significant increase
[1]; 32 mpk
  LIC from baseline at the first 24 weeks: remained relatively unchanged
[1]; Total (both dose groups)
  R2 LIC Change from Baseline to Week 12, Mean (SD): 1.20 (3.740)
  R2 LIC Change from Baseline to Week 12, Median: 0.70
  R2 LIC Change from Baseline to Week 24, Mean (SD): 1.37 (5.467)
  R2 LIC Change from Baseline to Week 24, Median: 0.50
  R2 LIC Change from Baseline to Week 48, Mean (SD): −0.63 (3.632)
  R2 LIC Change from Baseline to Week 48, Median: −0.20
  R2 LIC Change from Baseline to Week 72, Mean (SD): −0.69 (4.975)
  R2 LIC Change from Baseline to Week 72, Median: −0.80
  R2 LIC Week 12, Mean (SD): 14.72 (9.046)
  R2 LIC Week 12, Median: 11.10
  R2 LIC Week 24, Mean (SD): 14.75 (9.599)
  R2 LIC Week 24, Median: 11.00
  R2 LIC Week 48, Mean (SD): 11.74 (7.813)
  R2 LIC Week 48, Median: 8.80
  R2 LIC Week 72, Mean (SD): 11.31 (7.904)
  R2 LIC Week 72, Median: 8.70
[1]; Week 48, 19 subjects randomized to 16 mg/kg/day
  mean change from baseline LIC: 0.1 mg/g
[1]; Week 48, 20 subjects originally randomized to 32 mg/kg/day
  mean change from baseline LIC: -1.3 mg/g
[1]; at 24 weeks, p<0.03
  difference in the mean change from baseline between treatment groups: 3.4 mg/g
[1]; between 16 and 32 mpk, first 24-weeks
  dose-response in iron chelating capacity: clear dose-response
[1]; doses of 32 mpk and greater
  LIC from Week 24: reduction in LIC
[1]; high dose group (32 mg/kg/day)
  subjects with lower LIC at 24 weeks compared to Baseline: 11 of 25
[1]; high dose group (32 mg/kg/day), 24 weeks
  mean change in LIC: −0.3 mg/g liver (dw)
[1]; low dose group (16 mg/kg/day)
  subjects with lower LIC at 24 weeks compared with Baseline: 7 of 24
[1]; low dose group (16 mg/kg/day), 24 weeks
  mean change in LIC (net gain): 3.1 mg/g liver (dw)
[1]; [4]
  R2 LIC Change from Baseline to Week 48, Mean (SD): 0.09 (4.015)
  R2 LIC Change from Baseline to Week 48, Median: 0.00
  R2 LIC Change from Baseline to Week 72, Mean (SD): 0.52 (3.654)
  R2 LIC Change from Baseline to Week 72, Median: 0.50
  R2 LIC Week 48, Mean (SD): 11.68 (6.369)
  R2 LIC Week 48, Median: 9.30
  R2 LIC Week 72, Mean (SD): 10.74 (6.373)
  R2 LIC Week 72, Median: 9.40
[1]; [5]
  R2 LIC Change from Baseline to Week 48, Mean (SD): −1.32 (3.177)
  R2 LIC Change from Baseline to Week 48, Median: −0.90
  R2 LIC Change from Baseline to Week 72, Mean (SD): −1.83 (5.853)
  R2 LIC Change from Baseline to Week 72, Median: −1.80
  R2 LIC Week 48, Mean (SD): 11.81 (9.145)
  R2 LIC Week 48, Median: 7.70
  R2 LIC Week 72, Mean (SD): 11.84 (9.307)
  R2 LIC Week 72, Median: 8.70
[2]; 16 mg/kg/d group
  Serum Ferritin Change from Baseline to Week 72, Geometric Mean: 1.14
  Serum Ferritin Change from Baseline to Week 72, Mean: 233.21
  Serum Ferritin Change from Baseline to Week 72, Median: 231.50
  Serum Ferritin Week 72, Geometric Mean: 2418.49
  Serum Ferritin Week 72, Mean: 2873.93
  Serum Ferritin Week 72, Median: 2544.50
[2]; 32 mg/kg/d group
  Serum Ferritin Change from Baseline to Week 72, Geometric Mean: 0.89
  Serum Ferritin Change from Baseline to Week 72, Mean: −150.82
  Serum Ferritin Change from Baseline to Week 72, Median: −436.00
  Serum Ferritin Week 72, Geometric Mean: 2441.03
  Serum Ferritin Week 72, Mean: 3026.82
  Serum Ferritin Week 72, Median: 2396.00
[2]; Total
  Serum Ferritin Change from Baseline to Week 72, Geometric Mean: 0.99
  Serum Ferritin Change from Baseline to Week 72, Mean: 22.61
  Serum Ferritin Change from Baseline to Week 72, Median: −56.00
  Serum Ferritin Week 72, Geometric Mean: 2430.83
  Serum Ferritin Week 72, Mean: 2957.77
  Serum Ferritin Week 72, Median: 2398.00
[3]
  hygroscopicity: non-hygroscopic
[3]; 75% RH for 8 days
  XRPD pattern after RH exposure: remained unchanged
[3]; exposed to 75% RH for 8 days
  deliquescence: did not deliquesce
